Data taken from publication PMC12621189, “Optimization of Selective and CNS Penetrant Alkyne-Based TREK Inhibitors: The Discovery and Characterization of ONO-9517601 (VU6022856) and ONO-7927846 (VU6024391)” (Journal of Medicinal Chemistry, 2025).

How the values were obtained:
[1] = molecular target: T1, human TREK-1 (hTREK-1) (Homo sapiens, UniProt O95069); test: TREK-1 thallium flux assay (CHO-K1 cells stably expressing hTREK-1); type: cell-based; settings: human TREK-1, thallium flux; read-out: h TREK-1 Tl+ IC50
T1 construct: expressed in transfected cells
T1 sequence (O95069 1-426): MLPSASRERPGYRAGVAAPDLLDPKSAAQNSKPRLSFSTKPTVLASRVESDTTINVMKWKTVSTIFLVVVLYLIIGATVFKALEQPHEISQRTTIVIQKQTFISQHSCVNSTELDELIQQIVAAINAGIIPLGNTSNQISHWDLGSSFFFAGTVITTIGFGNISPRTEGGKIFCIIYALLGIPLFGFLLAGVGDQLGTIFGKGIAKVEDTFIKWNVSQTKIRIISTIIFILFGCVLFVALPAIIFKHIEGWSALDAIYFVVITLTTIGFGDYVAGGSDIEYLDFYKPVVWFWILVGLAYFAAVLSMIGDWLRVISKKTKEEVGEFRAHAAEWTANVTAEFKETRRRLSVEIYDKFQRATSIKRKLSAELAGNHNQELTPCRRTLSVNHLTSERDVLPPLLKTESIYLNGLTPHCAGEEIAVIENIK
Method: Procedures for Biological Experiments
TREK-1 Thallium flux assay
CHO-K1 cells stably expressing hTREK-1 were cultured in T225 flask. The cells were loaded with FluxOR dye and plated in 384 well plate at the experiment day. Test compounds or control compound (tert-butyl (3-((4-(benzyloxy)-2-methylphenyl)carbamoyl)-4-chlorophenyl)carbamate) or 0.3% DMSO (vehicle control) were added directly to the cell plates and incubated for 10 min, and then treated with thallium stimulus buffer to initiate thallium flux.
To measure the efficacy and potency of test compounds, the change in fluorescence intensity (ΔRatio) and % inhibition were calculated using the following equations:
ΔRatio = (fluorescence intensity at 25 seconds after thallium addition)/(average of fluorescent intensity before thallium addition)
0.3% DMSO - ΔRatio of 10 μM control compound)}x100
% inhibition vs compound concentration were plotted in XLfit and calculated IC50.
CHO-K1 cells stably expressing human TREK-1 (hTREK-1) were cultured in T225 flask.
The cells were loaded with FluxOR dye and plated in 384 well plate at the experiment day. Test compounds or control compound (tert-butyl (3-((4-(benzyloxy)-2-methylphenyl)carbamoyl)-4-chlorophenyl)carbamate) or 0.3% DMSO (vehicle control) which were prepared on separate plates were added to the cell plates and incubated for 10 min, and then the cells with test compounds or […]
chlorophenyl)carbamate) or 0.3% DMSO (vehicle control) were treated with thallium stimulus buffer to initiate thallium flux. To measure the efficacy and potency of test compounds, the change in fluorescence intensity (ΔRatio) and % inhibition were calculated using the following equations: […]

[2] = molecular target: T2, hTREK-1 (Homo sapiens, UniProt O95069); test: hTREK-1 manual patch clamp assay; type: cell-based; settings: human TREK-1, manual patch clamp; read-out: TREK-1 IC50 (human, MPC)
T2 construct: expressed in transfected cells
T2 sequence (O95069 1-426): T1 sequence (O95069 1-426)
Method: (§1) hTREK-1 and mTREK-1 patch clamp assay
(§2) CHO-K1 cells stably expressing hTREK-1 or CHO-K1 cells transiently expressing mouse TREK-1 (mTREK-1) were plated on glass coverslips, and voltage clamped in the whole-cell configuration of the patch clamp technique. Cells were voltage clamped at a holding potential of - 80 mV and the stepped to 0 mV for 500 msec. The voltage was subsequently ramped from -120mV to +80 mV over a 500 msec duration. This step-ramp protocol was repeated every 10 sec. The bathing solution contained the following: 135 mM NaCl, 5 mM KCl, 2 mM CaCl2, 1 mM MgCl2, 5 mM D-Glucose, 10 mM HEPES, 10 mM sucrose (adjusted to pH 7.4 with NaOH, 300 mosmol/kg H2O). The pipette solution contained the following: 135 mM KCl, 2 mM MgCl2, 1 mM EGTA, 10 mM HEPES, 2 mM Na2ATP (adjusted to pH 7.35 with KOH, 285 mosmol/kg H2O). Test […]
(§3) compounds were dissolved into the bathing solution. The effects of test compound on the currents were calculated at 0 mV using the following equations:
(§4) % inhibition = (1-post current/pre current) x 100
(§5) % inhibition vs compound concentrations were plotted in GraphPad Prism and calculated IC50. […]

[3] = ChromatoLogD; type: physicochemical
[4] = molecular target: T3, mouse TREK-1 (mTREK-1) (Mus musculus, UniProt P97438); test: mTREK-1 manual patch clamp assay; type: cell-based; settings: mouse TREK-1, manual patch clamp; read-out: TREK-1 IC50 (mouse, MPC)
T3 construct: expressed in transfected cells; host or cells: CHO-K1 (transient)
T3 sequence (P97438 1-426): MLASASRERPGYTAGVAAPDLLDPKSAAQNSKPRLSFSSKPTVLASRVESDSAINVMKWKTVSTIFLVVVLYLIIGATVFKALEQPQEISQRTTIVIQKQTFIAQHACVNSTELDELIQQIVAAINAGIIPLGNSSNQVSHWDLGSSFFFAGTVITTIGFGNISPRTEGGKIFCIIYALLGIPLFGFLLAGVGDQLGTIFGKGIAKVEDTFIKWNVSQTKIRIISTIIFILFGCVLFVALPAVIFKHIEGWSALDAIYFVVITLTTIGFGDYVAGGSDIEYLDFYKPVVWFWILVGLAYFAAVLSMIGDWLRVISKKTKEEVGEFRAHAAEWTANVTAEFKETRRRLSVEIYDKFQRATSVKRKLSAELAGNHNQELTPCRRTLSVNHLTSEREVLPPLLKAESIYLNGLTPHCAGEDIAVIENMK
Method: as §1, §2, §3, §4, §5

[5] = Liver microsome intrinsic clearance, human; type: in vitro ADME; settings: pH 7.4; human liver microsomes, predicted intrinsic clearance; read-out: LMS CLINT human
Method: were incubated in 100 mM potassium phosphate pH 7.4 buffer with 3 mM MgCl2 at 37 °C with constant shaking. After a 5 min preincubation, the reaction was initiated by the addition of NADPH (1 mM). At selected time intervals (0, 3, 7, 15, 25, and 45 min), aliquots were taken and subsequently placed into a 96-well plate containing cold acetonitrile with internal standard (50 ng/mL carbamazepine). Plates were then centrifuged at 3000 rcf (4 °C) for 10 min, and the supernatant was transferred to a separate 96-well plate and diluted 1:1 with water for LC/MS/MS analysis. The in vitro half-life ( 1/2, min, Eq. 1), intrinsic clearance (CLint, mL/min/kg, Eq. 2), and subsequent predicted hepatic clearance (CLhep, mL/min/kg, Eq. 3) was determined employing the […]
where k represents the slope from linear regression analysis of the natural log percent remaining of a test compound as a function of incubation time […]
(2) CLint = in vitroT x mg microsomes x gram liver x kg body wt ascale-up factors: of 20 (human) or 45 (rat) […]
where Qh (hepatic blood flow, mL/min/kg) is 21 (human) or 70 (rat).
LC/MS/MS Bioanalysis of Samples from Plasma Protein Binding and Intrinsic Clearance […]
Samples were analyzed on a Thermo Electron TSQ Quantum Ultra triple quad mass spectrometer (San Jose, CA) via electrospray ionization (ESI) with two Themo Electron Accella pumps (San Jose, CA), and a Leap Technologies CTC PAL autosampler (Carrboro, NC). Analytes were […]

[6] = Rat in vivo PK (plasma clearance) in SAR tables; settings: read-out: Rat CLp
[7] = Rat brain to plasma ratio (Kp, Kp,uu); type: in vivo; settings: male, Sprague Dawley, brain and plasma, intravenous, 0.2 mg/kg; rat brain:plasma
Method: Determination of brain to plasma ratio:
All animal study procedures were approved by the Institutional Animal Care and Use Committee and were conducted in accordance with the National Institutes of Health regulations of animal care covered in Principles of Laboratory Animal Care (National Institutes of Health). All rats were fasted overnight prior to testing.
For determination of the brain over plasma ratio (Kp), compounds were formulated in 8% ethanol, 32% PEG400 and 60% DMSO (v/v/v) and administered as a single 0.2 mg/kg IV dose (1 mL/kg) to male, Sprague Dawley rats (n = 1) via injection into a surgically-implanted jugular vein catheter. At 15 min post dosing, blood sample was collected into chilled, K2EDTA anticoagulant-fortified tube and immediately placed on wet ice. The blood sample was then centrifuged (1700 rcf, 5 minutes, 4 °C) to obtain plasma sample. At the same post-administration time point, whole brain sample was obtained by rapid dissection, rinsed with PBS, and immediately frozen in individual tissue collection box (dry ice). All brain and plasma samples were stored at -80 °C until […]
Sample Analysis: Concentrations in plasma and brain homogenates were quantified by liquid chromatography tandem mass spectrometry (LC-MS/MS). Whole brains were homogenized in 3 mL of 70:30 IPA:water in a mini bead beater for 3 min, and centrifuged at 3,500 g for 5 min. 5 uL of the supernatant was diluted in 15 uL of blank plasma for quantification of the analytes. Plasma samples were centrifuged at 3,500 g for 5 min. A standard curve was generated by diluting the analytes DMSO stocks with blank plasma to obtain a final concentration of 10,000 ng/ml followed by a serial dilution down to 0.5 ng/ml. Quality controls were generated by a serial dilution of the 5,000 ng/ml standard curve solution in blank plasma to obtain 3 concentrations of 500, 50, and 5 ng/ml. 20 uL of brain diluted in plasma, plasma, blank plasma, standard curve and QC samples were loaded in a V-bottom 96-well plate. 120 uL of acetonitrile containing 0.05 uM carbamazepine (internal standard) was added to each well and the plate was centrifuged at 3,500 g for 5 min. 60 uL of the supernatant of each well (protein free) was transferred to a new 96-well plate containing 60 uL of water. The plates were sealed for analysis by LC-MS/MS.
Plasma and brain tissue samples originating from in vivo studies were analyzed by electrospray ionization using an AB Sciex Q-TRAP 5500 (Foster City, CA) that was coupled to a Shimadzu LC-20AD pump (Columbia, MD) and a Leap Technologies CTC PAL auto-sampler (Carrboro, NC). Analytes were separated by gradient elution using a C18 column (3 x 50 mm, 3 mm; Fortis Technologies Ltd, Cheshire, UK) that was thermostated at 40 °C. HPLC mobile phase A was 0.1% formic acid in water (pH unadjusted); mobile phase B was 0.1% formic acid in acetonitrile (pH […]
min, with an isocratic hold for 0.5 min, before transitioning to 10% B over 0.05 min. The column was re-equilibrated (1 min) before the next sample injection. The total run time was 2.55 min, and the HPLC flow rate was 0.5 ml/min. The source temperature was set at 500 °C, and mass spectral analyses were performed using a Turbo-Ion spray source in positive ionization mode (5.0-kV spray voltage) and using multiple-reaction monitoring of transitions specific for the analytes. All data were analyzed using AB Sciex Analyst 1.5.1 software.
Brain plasma concentration ratio (Kp) was calculated by dividing brain concentration by plasma concentration for each animal. Unbound brain to unbound plasma concentration ratio (Kp,uu) is calculated using the following formula: Kp,uu = (Brain ng/g x brain fu)/(plasma ng/ml x plasma fu).
In-vitro determination of blood-brain barrier penetration potential
Blood-brain barrier penetration was determined using MDR1-MDCK cell monolayers by Absorption Systems, following their protocol. In short, compounds were incubated at […] final concentration on one side of the cell monolayer for 2 hours. […]

[8] = Liver microsome intrinsic clearance, mouse; type: in vitro ADME; settings: pH 7.4; mouse liver microsomes, predicted intrinsic clearance; read-out: LMS CLINT mouse

IC50 [1] [nM]	IC50 [2] [nM]	chromatographic logD [3]	IC50 [4] [nM]	CLint scaled at 1 µM [5] [mL/min/kg]	clearance [6] [mL/min/kg]	Kp at 15 min [7]	CLint scaled at 1 µM [8] [mL/min/kg]	Compound
110	11	4.14	1200	–	–	–	–	Cc1cc(C#Cc2ccccc2)cnc1NC(=O)c1cc(OC[C@H]2COCCO2)ccc1Cl [Compound 13d, (R)-5-((1,4-Dioxan-2-yl)methoxy)-2-chloro-N-(3-methyl-5-(phenylethynyl)pyridin-2-yl)benzamide]
320	–	4.03	–	18	328	0.84	75	Cc1cc(C#Cc2ccccc2)cnc1NC(=O)c1cc(C(=O)N2CC(F)(F)C2)ccc1Cl [Compound 13a, 2-Chloro-5-(3,3-difluoroazetidine-1-carbonyl)-N-[3-methyl-5-(2-phenylethynyl)-2-pyridyl]benzamide]
130	–	4.14	–	36	16.2	0.89	107	Cc1cc(C#Cc2ccccc2)cnc1NC(=O)c1cc(OCC2COCCO2)ccc1Cl (stereo not shown) [Compound 13c, 2-Chloro-5-(1,4-dioxan-2-ylmethoxy)-N-[3-methyl-5-(2-phenylethynyl)-2-pyridyl]benzamide]
